The source of these data is publication PMC12410356 (International Journal for Parasitology: Drugs and Drug …, 2025).

For the data set, the system named is Reuber rat hepatoma (RH) cells. Briefly: Mammalian cell toxicity, resazurin assay. It is filed as cell-based. The note with it: for IC50: 5 days incubation, mean ± SD. The protocol:
Mammalian cell toxicity on RH cells was measured as described in [Rufener et al. (2018)] with few alterations. Briefly, confluent (50′000 cells/well) and pre-confluent (5′000 cells/well) were seeded into 96-well plates in DMEM supplemented with 10 % FBS, penicillin (100 U/mL), streptomycin (100 μg/mL) and tetracycline (5 μg/mL) and incubated at 37 °C under a humid, 5 % CO2 atmosphere for 24 h and 5 h respectively. Alexidine, ESI-09 and MMV1581545 were added to final concentrations ranging from 120 to 0.49 μM (1:3 serial dilution) to each well and then cells were incubated at 37 °C under a humid, 5 % CO2 atmosphere for 5 days. To measure viability, the medium was removed, 180 μL of PBS was added to the cells and resazurin was added to each well to a final concentration of 10 mg/L. The cells were then allowed to process the resazurin at RT for 1 h. Fluorescence was measured on a HIDEX Sense microplate reader. Measurements were performed in triplicates and IC50 values were calculated in R using the three parameter Weibull type 1 model for three independent experiments ([Ritler et al., 2020]).
Background: Resazurin is reduced to fluorescent resorufin, in cell work by metabolically active cells.

By IC50 is commonly meant the point on the concentration scale where inhibition reaches its midpoint.

Molecules are shown by their SMILES. Like-named read-outs stand apart in the source and are kept apart here.

Turning to `CC(C)(C)c1cc(C(=O)/C(C#N)=N/Nc2cccc(Cl)c2)no1` [ESI-09], the “toxicity against mammalian cell line (in words)” value (RH cells counter-screen) is “moderate toxicity”. The IC50 by setting is: (Rattus norvegicus, 120 h, confluent, read-out: IC50 confluent RH cells) 37.3 ± 0.73 µM; (Rattus norvegicus, 120 h, pre-confluent, read-out: IC50 pre-confluent RH cells) 9.02 ± 1.3 µM; (pre-confluent, read-out: IC50 pre-confluent RH cells) 9.03 ± 1.3 µM.
